Results reported in ChEMBL document CHEMBL5236659, “Design, synthesis and antitumor activity of novel thiophene- triazine derivatives bearing arylurea unit as potent PI3K/mTOR inhibitorss” (Bioorg Med Chem, 2023).
Calls of active or inactive are those of the source. No cut-off for these calls is given here.

Legend:
[1] = target: Vascular endothelial growth factor receptor 2 (Homo sapiens) (UniProt P35968); assay: Inhibition of KDR (unknown origin) at 1 uM by kinase-glo luminescent assay relative to control
[2] = Hemolytic activity in 2% sheep RBC assessed as hemolysis at 16 to 256 ug/ml incubated for 3 hrs; format: toxicity, cell-based, Ovis aries; settings: erythrocyte, dose 16-256 µg/ml
[3] = target: RAC-alpha serine/threonine-protein kinase (Homo sapiens) (UniProt P31749); assay: Inhibition of AKT1 (unknown origin) at 1 uM by kinase-glo luminescent assay relative to control
[4] = Cytotoxicity against human L02 cells assessed as inhibition of cell growth incubated for 72 hrs by MTT assay; format: toxicity, cell-based
[5] = target: T1, Phosphatidylinositol 4,5-bisphosphate 3-kinase catalytic subunit alpha isoform (Homo sapiens, UniProt P42336); assay: Inhibition of PI3Kalpha (unknown origin) at 1 uM by kinase-glo luminescent assay relative to control
NCI-H460 = assay: Antiproliferative activity against human NCI-H460 cells assessed as inhibition of cell growth incubated for 72 hrs by MTT assay; format: functional, cell-based; settings: NCI-H460, 72 h
NCI-H2228 = assay: Antiproliferative activity against human NCI-H2228 cells assessed as inhibition of cell growth incubated for 72 hrs by MTT assay; format: functional, cell-based
HeLa [6] = assay: Antiproliferative activity against human HeLa cells assessed as inhibition of cell growth incubated for 72 hrs by MTT assay; format: functional, cell-based
[7] = target: T1, Phosphatidylinositol 4,5-bisphosphate 3-kinase catalytic subunit alpha isoform; assay: Inhibition of PI3Kalpha in human MCF7 cells assessed as decrease in PI3Kalpha gene expression incubated for 24 hrs by fluorescence quantitative PCR assay; format: cell-based; settings: dose 0.8-1.6 µM
[8] = Antiproliferative activity against human OVCAR-2 cells assessed as inhibition of cell growth incubated for 72 hrs by MTT assay; format: functional, cell-based; settings: OVCAR-2, 72 h
NCI-H1975 = assay: Antiproliferative activity against human NCI-H1975 cells overexpressing EGFR L858R/T790M mutant assessed as inhibition of cell growth incubated for 72 hrs by MTT assay; format: functional, cell-based; settings: NCI-H1975, 72 h
HeLa [9] = assay: Antiproliferative activity against paclitaxel-resistant human HeLa cells assessed as inhibition of cell growth incubated for 72 hrs by MTT assay; format: functional, cell-based
[10] = target: T1, Phosphatidylinositol 4,5-bisphosphate 3-kinase catalytic subunit alpha isoform; assay: Inhibition of PI3Kalpha (unknown origin) by kinase-glo luminescent assay
[11] = target: Epidermal growth factor receptor (Homo sapiens) (UniProt P00533); assay: Inhibition of EGFR (unknown origin) at 1 uM by kinase-glo luminescent assay relative to control
[12] = Antiproliferative activity against human U-87 MG cells assessed as inhibition of cell growth incubated for 72 hrs by MTT assay; format: functional, cell-based, U-87MG ATCC
A549 = assay: Antiproliferative activity against human A549 cells assessed as inhibition of cell growth incubated for 72 hrs by MTT assay; format: functional, cell-based; settings: A549, 72 h
MCF7 = assay: Antiproliferative activity against human MCF7 cells assessed as inhibition of cell growth incubated for 72 hrs by MTT assay; format: functional, cell-based; settings: MCF7, 72 h
[13] = Selectivity ratio of IC50 for antiproliferative activity against human A549 cells to IC50 for antiproliferative activity against human NCI-H1975 cells overexpressing EGFR L858R/T790M mutant; format: functional
[14] = target: T2, Serine/threonine-protein kinase mTOR (Homo sapiens, UniProt P42345); assay: Inhibition of mTOR (unknown origin) at 1 uM by kinase-glo luminescent assay relative to control
[15] = Selectivity ratio of IC50 for antiproliferative activity against human HeLa cells to IC50 for antiproliferative activity against paclitaxel-resistant human HeLa cells; format: functional
[16] = Selectivity ratio of IC50 for antiproliferative activity against human MCF7 cells to IC50 for antiproliferative activity against human U-87 MG cells; format: functional
[17] = target: T2, Serine/threonine-protein kinase mTOR; assay: Inhibition of mTOR (unknown origin) by kinase-glo luminescent assay
Homo sapiens = organism: Homo sapiens; assay: Selectivity index, ratio of IC50 for inhibition of PI3Kalpha (unknown origin) to IC50 for inhibition of mTOR (unknown origin) by kinase glo luminescent assay
[18] = Homo sapiens, NCI-H2228, 72 h, read-out: IC50

Vascular endothelial growth factor receptor 2 (Homo sapiens), sequence (P35968 whole entry): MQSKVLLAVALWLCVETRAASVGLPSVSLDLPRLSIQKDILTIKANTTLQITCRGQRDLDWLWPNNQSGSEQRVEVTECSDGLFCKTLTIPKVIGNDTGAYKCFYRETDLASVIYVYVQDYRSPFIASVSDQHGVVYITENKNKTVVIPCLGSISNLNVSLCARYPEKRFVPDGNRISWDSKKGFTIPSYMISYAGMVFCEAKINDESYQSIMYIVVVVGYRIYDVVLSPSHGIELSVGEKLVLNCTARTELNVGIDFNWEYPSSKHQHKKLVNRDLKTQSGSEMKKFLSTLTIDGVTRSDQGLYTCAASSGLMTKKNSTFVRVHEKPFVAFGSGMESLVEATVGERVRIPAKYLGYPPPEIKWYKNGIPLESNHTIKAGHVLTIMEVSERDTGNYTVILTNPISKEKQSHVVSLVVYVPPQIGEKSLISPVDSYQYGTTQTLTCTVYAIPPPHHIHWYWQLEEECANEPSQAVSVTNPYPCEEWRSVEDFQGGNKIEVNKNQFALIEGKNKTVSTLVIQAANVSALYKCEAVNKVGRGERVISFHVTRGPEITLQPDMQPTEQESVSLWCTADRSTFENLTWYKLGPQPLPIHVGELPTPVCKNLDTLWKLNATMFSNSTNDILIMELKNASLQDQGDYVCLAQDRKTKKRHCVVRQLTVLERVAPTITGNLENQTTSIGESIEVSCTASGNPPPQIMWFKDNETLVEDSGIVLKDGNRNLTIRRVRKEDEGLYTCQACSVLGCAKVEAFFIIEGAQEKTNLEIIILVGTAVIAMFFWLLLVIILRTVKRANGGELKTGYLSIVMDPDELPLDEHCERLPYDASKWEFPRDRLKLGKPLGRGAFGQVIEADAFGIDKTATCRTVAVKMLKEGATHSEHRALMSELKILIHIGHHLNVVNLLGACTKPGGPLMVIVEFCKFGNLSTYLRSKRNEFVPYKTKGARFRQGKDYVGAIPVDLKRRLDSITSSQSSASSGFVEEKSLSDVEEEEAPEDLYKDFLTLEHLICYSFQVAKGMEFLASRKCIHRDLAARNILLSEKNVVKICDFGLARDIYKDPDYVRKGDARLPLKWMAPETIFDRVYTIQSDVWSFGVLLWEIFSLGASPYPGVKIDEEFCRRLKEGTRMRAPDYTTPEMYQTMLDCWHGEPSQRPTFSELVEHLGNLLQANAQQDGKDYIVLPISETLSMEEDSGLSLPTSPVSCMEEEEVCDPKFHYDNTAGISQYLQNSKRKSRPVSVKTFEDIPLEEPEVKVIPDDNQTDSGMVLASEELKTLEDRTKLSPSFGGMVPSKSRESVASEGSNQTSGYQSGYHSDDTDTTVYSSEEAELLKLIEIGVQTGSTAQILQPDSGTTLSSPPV
T1 sequence (P42336 whole entry, canonical isoform): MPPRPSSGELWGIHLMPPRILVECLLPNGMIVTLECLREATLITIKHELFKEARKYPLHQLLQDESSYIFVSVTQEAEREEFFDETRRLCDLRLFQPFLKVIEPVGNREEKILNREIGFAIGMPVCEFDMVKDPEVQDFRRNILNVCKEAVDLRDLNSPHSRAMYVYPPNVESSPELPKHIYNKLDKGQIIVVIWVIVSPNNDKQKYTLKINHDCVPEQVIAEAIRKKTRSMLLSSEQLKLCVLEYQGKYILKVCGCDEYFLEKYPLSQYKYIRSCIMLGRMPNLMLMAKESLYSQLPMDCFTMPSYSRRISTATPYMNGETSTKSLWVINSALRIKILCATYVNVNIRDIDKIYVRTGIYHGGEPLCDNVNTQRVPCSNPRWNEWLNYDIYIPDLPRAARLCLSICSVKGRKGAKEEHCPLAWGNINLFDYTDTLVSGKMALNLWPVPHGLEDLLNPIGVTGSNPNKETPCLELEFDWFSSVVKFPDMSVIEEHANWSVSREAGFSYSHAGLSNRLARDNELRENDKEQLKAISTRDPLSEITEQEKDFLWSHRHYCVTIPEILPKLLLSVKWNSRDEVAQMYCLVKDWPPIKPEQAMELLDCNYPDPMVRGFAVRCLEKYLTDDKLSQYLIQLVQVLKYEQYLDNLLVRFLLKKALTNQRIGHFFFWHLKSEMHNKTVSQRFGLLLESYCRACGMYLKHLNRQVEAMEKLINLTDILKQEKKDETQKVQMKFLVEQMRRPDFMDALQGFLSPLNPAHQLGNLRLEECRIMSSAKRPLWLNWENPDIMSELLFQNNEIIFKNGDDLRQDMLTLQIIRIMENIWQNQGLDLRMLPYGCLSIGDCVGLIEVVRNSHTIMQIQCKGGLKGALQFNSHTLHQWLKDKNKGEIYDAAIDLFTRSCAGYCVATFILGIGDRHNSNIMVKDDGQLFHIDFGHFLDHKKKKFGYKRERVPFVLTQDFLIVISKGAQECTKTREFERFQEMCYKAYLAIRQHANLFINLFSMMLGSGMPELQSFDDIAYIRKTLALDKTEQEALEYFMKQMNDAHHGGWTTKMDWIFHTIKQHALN
Epidermal growth factor receptor (Homo sapiens), sequence (P00533 whole entry): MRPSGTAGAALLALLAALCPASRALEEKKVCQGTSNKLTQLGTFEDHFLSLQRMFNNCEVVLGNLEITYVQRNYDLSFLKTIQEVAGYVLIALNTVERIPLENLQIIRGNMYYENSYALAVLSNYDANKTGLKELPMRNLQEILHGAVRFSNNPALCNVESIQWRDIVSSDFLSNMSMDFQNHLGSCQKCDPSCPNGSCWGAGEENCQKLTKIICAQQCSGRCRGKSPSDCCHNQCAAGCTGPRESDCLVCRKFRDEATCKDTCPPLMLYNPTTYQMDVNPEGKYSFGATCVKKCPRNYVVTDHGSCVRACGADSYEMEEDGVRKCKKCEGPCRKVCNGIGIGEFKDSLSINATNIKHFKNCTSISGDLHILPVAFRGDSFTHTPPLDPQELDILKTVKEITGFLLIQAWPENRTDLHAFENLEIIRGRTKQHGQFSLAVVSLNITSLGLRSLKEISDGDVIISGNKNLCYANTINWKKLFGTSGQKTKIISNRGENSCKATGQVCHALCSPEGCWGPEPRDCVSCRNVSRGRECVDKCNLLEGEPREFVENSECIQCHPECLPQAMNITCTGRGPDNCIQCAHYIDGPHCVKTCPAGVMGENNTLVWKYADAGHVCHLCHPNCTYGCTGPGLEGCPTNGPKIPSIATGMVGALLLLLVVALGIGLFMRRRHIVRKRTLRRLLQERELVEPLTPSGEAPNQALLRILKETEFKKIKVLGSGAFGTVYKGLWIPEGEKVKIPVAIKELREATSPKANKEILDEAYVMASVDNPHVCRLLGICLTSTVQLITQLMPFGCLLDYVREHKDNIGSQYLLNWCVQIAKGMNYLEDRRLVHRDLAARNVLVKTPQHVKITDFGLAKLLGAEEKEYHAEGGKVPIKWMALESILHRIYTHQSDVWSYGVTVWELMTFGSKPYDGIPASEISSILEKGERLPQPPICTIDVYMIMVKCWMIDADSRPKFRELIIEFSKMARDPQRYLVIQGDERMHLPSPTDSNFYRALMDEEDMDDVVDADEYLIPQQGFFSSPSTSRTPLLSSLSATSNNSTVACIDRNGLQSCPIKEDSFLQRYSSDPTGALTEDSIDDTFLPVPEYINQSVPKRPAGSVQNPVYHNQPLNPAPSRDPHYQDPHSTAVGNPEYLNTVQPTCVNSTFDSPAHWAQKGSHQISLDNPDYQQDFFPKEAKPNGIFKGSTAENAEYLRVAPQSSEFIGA
RAC-alpha serine/threonine-protein kinase (Homo sapiens), sequence (P31749 whole entry): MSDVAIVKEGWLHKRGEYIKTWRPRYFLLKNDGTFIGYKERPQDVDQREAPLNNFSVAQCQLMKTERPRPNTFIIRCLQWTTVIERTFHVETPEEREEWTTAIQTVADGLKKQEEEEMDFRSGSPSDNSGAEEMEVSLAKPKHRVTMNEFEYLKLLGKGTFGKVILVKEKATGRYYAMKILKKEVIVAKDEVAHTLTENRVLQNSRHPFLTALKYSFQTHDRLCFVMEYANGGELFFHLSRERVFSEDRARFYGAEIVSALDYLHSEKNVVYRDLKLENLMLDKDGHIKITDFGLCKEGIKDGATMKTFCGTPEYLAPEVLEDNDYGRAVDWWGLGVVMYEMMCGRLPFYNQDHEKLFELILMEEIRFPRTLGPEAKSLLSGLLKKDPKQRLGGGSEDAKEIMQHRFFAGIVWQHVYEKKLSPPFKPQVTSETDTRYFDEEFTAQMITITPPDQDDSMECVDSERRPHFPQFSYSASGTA

inhibition [5] | IC50 (NCI-H460) | IC50 (HeLa [6]) | IC50 (NCI-H1975) | IC50 (HeLa [9]) | IC50 [10] | IC50 (A549) | IC50 (MCF7) | inhibition [14] | Structure (SMILES) | IC50 [8] | IC50 [12] | Ratio IC50 [13] | Ratio IC50 [15] | Ratio IC50 [16] | also measured
88.2% | 2.31 µM | 1.04 µM | 0.008 µM | 0.37 µM | 0.177 µM | 0.47 µM | 0.3 µM |  | CS(=O)(=O)N1CCN(Cc2ccc(-c3nc(-c4ccc(NC(=O)Nc5ccncc5)cc4)nc(N4CCOCC4)n3)s2)CC1 | 0.25 µM | 1.25 µM |  |  |  | inhibition [1]: 1.74%; Activity [2]: Non-Toxic; inhibition [3]: 18.2%; IC50 at 72 h [4]: > 100 µM; IC50 (NCI-H2228; [18]): 0.22 µM; inhibition [7]: Dose-Dependent Effect; inhibition [11]: 6.24%
93% | 20.5 µM | 2.14 µM | 31.2 µM | 10.5 µM |  | 14.2 µM | 0.11 µM | 96.4% | CS(=O)(=O)N1CCN(Cc2ccc(-c3nc(-c4ccc(NC(=O)Nc5ccc6[nH]ncc6c5)cc4)nc(N4CCOCC4)n3)s2)CC1 | 12.6 µM | 15.1 µM | 0.46 | 0.2 | 0.007 | 
20.6% | 25.4 µM | 18.2 µM | 8.22 µM | 0.021 µM | 2.36 µM | 7.08 µM | 5.87 µM | 76.6% | CS(=O)(=O)N1CCN(Cc2ccc(-c3nc(-c4ccc(NC(=O)Nc5cnccn5)cc4)nc(N4CCOCC4)n3)s2)CC1 | 15.8 µM | > 100 µM | 0.86 | 912.5 |  | IC50 [17]: 0.16 µM; IC50 (NCI-H2228; [18]): 10.3 µM; Ratio IC50 (Homo sapiens): 14.7
47.5% | 10.6 µM | 45.1 µM | 9.87 µM | 31.7 µM | 1.33 µM | 16.4 µM | 0.42 µM | 72.7% | Cn1nccc1NC(=O)Nc1ccc(-c2nc(-c3ccc(CN4CCN(S(C)(=O)=O)CC4)s3)nc(N3CCOCC3)n2)cc1 | 15.9 µM | 8.61 µM | 1.67 | 1.43 | 0.048 | IC50 [17]: 0.571 µM; Ratio IC50 (Homo sapiens): 2.33
97.8% | 2.68 µM | 3.15 µM | 2.42 µM | 2.97 µM |  | 1.03 µM | 1.2 µM | 90.6% | CS(=O)(=O)N1CCN(Cc2cc3nc(-c4cccc5[nH]ncc45)nc(N4CCOCC4)c3s2)CC1 [PICTILISIB] | 1.25 µM | 3.13 µM |  |  |  | inhibition [1]: inactive; inhibition [3]: inactive; IC50 (NCI-H2228; [18]): 1.07 µM; inhibition [11]: inactive
 | > 100 µM | 31.2 µM | 0.11 µM | 22.6 µM |  | 20.5 µM | 9.11 µM |  | CS(=O)(=O)N1CCN(Cc2ccc(-c3nc(-c4ccc(NC(=O)NN5CCOCC5)cc4)nc(N4CCOCC4)n3)s2)CC1 | 15.9 µM | 26.9 µM | 186.72 | 1.38 | 0.34 | 
87.2% | 11.5 µM | 4.3 µM | 5.27 µM | 0.23 µM |  | 3.62 µM | 1.8 µM | 91.1% | CS(=O)(=O)N1CCN(Cc2ccc(-c3nc(-c4ccc(NC(=O)Nc5ccn[nH]5)cc4)nc(N4CCOCC4)n3)s2)CC1 | 2.12 µM | 8.96 µM | 0.69 | 18.7 | 0.2 | inhibition [1]: 1.77%; inhibition [3]: 4.03%; IC50 at 72 h [4]: > 100 µM; inhibition [11]: 10.5%
80.1% | 3.21 µM | 2.36 µM | 0.16 µM | 2.07 µM | 0.299 µM | 0.11 µM | 1.05 µM |  | Cn1ccc(NC(=O)Nc2ccc(-c3nc(-c4ccc(CN5CCN(S(C)(=O)=O)CC5)s4)nc(N4CCOCC4)n3)cc2)n1 | 1.06 µM | 0.24 µM |  |  |  | inhibition [1]: inactive; inhibition [3]: 1.02%; IC50 at 72 h [4]: > 100 µM; inhibition [11]: inactive
 | > 100 µM | 15 µM | 6.78 µM | 28 µM |  | 10.8 µM | 7.61 µM |  | CS(=O)(=O)N1CCN(Cc2ccc(-c3nc(-c4ccc(NC(=O)Nc5cncnc5)cc4)nc(N4CCOCC4)n3)s2)CC1 | 20.1 µM | 14.9 µM | 1.59 | 0.54 | 0.51 | 
9% | > 100 µM | 17.1 µM | 40.5 µM | 17.2 µM | 8.97 µM | 2.38 µM | 7.46 µM | 17.1% | CS(=O)(=O)N1CCN(Cc2ccc(-c3nc(-c4ccc(NC(=O)NC5CN6CCC5CC6)cc4)nc(N4CCOCC4)n3)s2)CC1 (stereo not drawn) | 22.9 µM | 21.5 µM | 0.059 | 0.99 | 0.35 | IC50 [17]: 7.96 µM; Ratio IC50 (Homo sapiens): 1.13
94.5% | > 100 µM | 25.5 µM | 22.5 µM | 21.4 µM |  | 13.2 µM | 13 µM | 97.3% | CS(=O)(=O)N1CCN(Cc2ccc(-c3nc(-c4ccc(NC(=O)Nc5nc[nH]n5)cc4)nc(N4CCOCC4)n3)s2)CC1 | 12.3 µM | 18.2 µM | 0.59 | 1.19 | 0.71 | 
47.7% | 14.3 µM | 7.58 µM | > 100 µM | 38.5 µM | 1.79 µM | 48.9 µM | 20.1 µM |  | CS(=O)(=O)N1CCN(Cc2ccc(-c3nc(-c4ccc(NC(=O)Nc5ncc[nH]5)cc4)nc(N4CCOCC4)n3)s2)CC1 | 22.6 µM | > 100 µM |  |  |  | IC50 (NCI-H2228; nci-h2228): Not Active
 | > 100 µM | 48.5 µM | > 100 µM | > 100 µM |  | 2.82 µM | 15.2 µM |  | CS(=O)(=O)N1CCN(Cc2ccc(-c3nc(-c4ccc(NC(=O)Nc5nn[nH]n5)cc4)nc(N4CCOCC4)n3)s2)CC1 | > 100 µM | > 100 µM |  |  |  | 
 | > 100 µM | 13.8 µM | 7.86 µM | > 100 µM |  | 53.9 µM | > 100 µM |  | Cn1ccnc1NC(=O)Nc1ccc(-c2nc(-c3ccc(CN4CCN(S(C)(=O)=O)CC4)s3)nc(N3CCOCC3)n2)cc1 |  | > 100 µM |  |  |  | 
16.1% | 7.57 µM | 6.01 µM | 0.076 µM | 9.27 µM | 3 µM | 10.1 µM | 3.34 µM |  | CS(=O)(=O)N1CCN(Cc2ccc(-c3nc(-c4ccc(NC(=O)Nc5ccccn5)cc4)nc(N4CCOCC4)n3)s2)CC1 | 3.52 µM | 10.5 µM |  |  |  | 
46.8% | > 100 µM | 42.8 µM | > 100 µM | > 100 µM | 1.74 µM | 50.4 µM | 1.82 µM |  | CS(=O)(=O)N1CCN(Cc2ccc(-c3nc(-c4ccc(NC(=O)Nn5cnnc5)cc4)nc(N4CCOCC4)n3)s2)CC1 | 26.9 µM | > 100 µM |  |  |  | 
43.4% | > 100 µM | 28.2 µM | 5.53 µM | > 100 µM |  | 44.9 µM | 30.7 µM | 86.8% | CS(=O)(=O)N1CCN(Cc2ccc(-c3nc(-c4ccc(NC(=O)Nc5ccncn5)cc4)nc(N4CCOCC4)n3)s2)CC1 | > 100 µM | 25.2 µM | 8.12 |  | 1.21 | 
91.3% | 17.9 µM | 15.2 µM | 12.7 µM | 12.6 µM |  | 13.1 µM | 12.5 µM | 93% | CS(=O)(=O)N1CCN(Cc2ccc(-c3nc(-c4ccc(NC(=O)Nc5ncccn5)cc4)nc(N4CCOCC4)n3)s2)CC1 | > 100 µM | > 100 µM | 1.03 | 1.21 |  | 
